{
  "source": "patent US20250381157A1",
  "about": "“ANTIMICROBIAL COMPOUNDS” (priority 2022, published 2025)",
  "key": {"[1]": {"target": "T1, recombinant human HDAC8 (Homo sapiens, UniProt Q9BY41)", "T1 construct": "purchased BPS 50008", "T1 sequence (Q9BY41 1-377)": "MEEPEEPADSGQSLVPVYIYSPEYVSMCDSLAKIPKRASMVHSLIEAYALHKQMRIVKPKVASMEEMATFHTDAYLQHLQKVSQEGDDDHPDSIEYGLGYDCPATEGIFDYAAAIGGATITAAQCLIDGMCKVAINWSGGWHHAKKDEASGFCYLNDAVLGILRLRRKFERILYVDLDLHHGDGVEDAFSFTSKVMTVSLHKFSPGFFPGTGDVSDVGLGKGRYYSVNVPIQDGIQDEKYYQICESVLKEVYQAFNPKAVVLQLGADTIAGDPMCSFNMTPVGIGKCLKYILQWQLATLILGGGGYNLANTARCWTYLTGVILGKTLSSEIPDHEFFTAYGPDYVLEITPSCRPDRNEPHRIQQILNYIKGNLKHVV", "assay": "HDAC8 in-vitro enzymatic assay", "assay_type": "biochemical", "protocol": "(§1) All of the compounds were dissolved in DMSO. A series of dilutions of the compounds were prepared with 10% DMSO in HDAC assay buffer and 5 μl of the dilution was added to a 50 μl reaction so that the final concentration of DMSO was 1% in all of reactions. The compounds were pre-incubated in duplicate at RT for 30 minutes in a mixture containing HDAC assay buffer, 5 μg BSA, HDAC enzyme and a test compound. After 30 minutes, the enzymatic reactions were initiated by the addition of HDAC substrate to a final concentration of 20 μM or 2 μM. The enzymatic reaction proceeded for 30 minutes at 37° C. After enzymatic reactions, 50 μl of 2×HDAC Developer was added to each well for the HDAC enzymes and the plate was incubated at room temperature for an additional 15 minutes. Fluorescence intensity was measured at an excitation of 360 nm and an emission of 460 nm using a Tecan Infinite M1000 microplate reader.\n(§2) HDAC activity assays were performed in duplicates at each concentration. The fluorescent intensity data were analyzed using the computer software, Graphpad Prism. […] The percent activity in the presence of each compound was calculated according to the following equation: % activity=(F−Fb)/(Ft−Fb), where F=the fluorescent intensity in the presence of the compound. […] The IC50 value was determined by the concentration causing a half-maximal percent activity."}, "[2]": {"tested_on": "E. coli", "assay": "E. coli mouse infection model", "assay_type": "in vivo", "conditions": "for translocation of bacteria to liver and spleen: oral, CFU in liver", "protocol": "FIG. 1: E. coli mouse infection model. CFU measured in tissue: colon, ileum, liver, spleen. Statistical analysis was performed by comparing all conditions to the vehicle-treated group and using one-way ANOVA with Dunnett post-hoc test, *** p<0.001, **** p<0.0001, ns non-significant.\nCompound 1 was administered orally to a mouse model of E. coli infection at 25 mg/kg, 73.5 mk/kg and 50 mg/kg. Compound 1 achieved the study goal of lowering Colony Unit Forming count in colon tissue by a factor of 3 log10 compared to vehicle treated animals.\n• Infecting mice through oral administration of a vancomycin resistant pathogenic strain of E. coli simplified the process of determining the mechanism(s) by which compound 1 exerts its effects on the pathogenic process. […] This is evidenced by the fact that there still are viable vancomycin resistant E. coli present in the colon and ileum at the conclusion of the experiment (FIG. 1). […] It is therefore unlikely that compound 1 is inhibiting E. coli translocation to these organs solely due to its ability to stimulate production of antibacterial peptides. […] That experiment was performed in the presence of cyclophosphamide, which is known to cause febrile neutropenia due to translocation of bacteria to vital organs. […] First is the ability of the compound 1 to attenuate the growth of bacteria and secondly is its ability to inhibit the bacterial translocation."}, "[3]": {"target": "T2, recombinant human HDAC7 (Homo sapiens, UniProt Q8WUI4)", "T2 construct": "purchased BPS 50007", "T2 sequence (Q8WUI4 1-952)": "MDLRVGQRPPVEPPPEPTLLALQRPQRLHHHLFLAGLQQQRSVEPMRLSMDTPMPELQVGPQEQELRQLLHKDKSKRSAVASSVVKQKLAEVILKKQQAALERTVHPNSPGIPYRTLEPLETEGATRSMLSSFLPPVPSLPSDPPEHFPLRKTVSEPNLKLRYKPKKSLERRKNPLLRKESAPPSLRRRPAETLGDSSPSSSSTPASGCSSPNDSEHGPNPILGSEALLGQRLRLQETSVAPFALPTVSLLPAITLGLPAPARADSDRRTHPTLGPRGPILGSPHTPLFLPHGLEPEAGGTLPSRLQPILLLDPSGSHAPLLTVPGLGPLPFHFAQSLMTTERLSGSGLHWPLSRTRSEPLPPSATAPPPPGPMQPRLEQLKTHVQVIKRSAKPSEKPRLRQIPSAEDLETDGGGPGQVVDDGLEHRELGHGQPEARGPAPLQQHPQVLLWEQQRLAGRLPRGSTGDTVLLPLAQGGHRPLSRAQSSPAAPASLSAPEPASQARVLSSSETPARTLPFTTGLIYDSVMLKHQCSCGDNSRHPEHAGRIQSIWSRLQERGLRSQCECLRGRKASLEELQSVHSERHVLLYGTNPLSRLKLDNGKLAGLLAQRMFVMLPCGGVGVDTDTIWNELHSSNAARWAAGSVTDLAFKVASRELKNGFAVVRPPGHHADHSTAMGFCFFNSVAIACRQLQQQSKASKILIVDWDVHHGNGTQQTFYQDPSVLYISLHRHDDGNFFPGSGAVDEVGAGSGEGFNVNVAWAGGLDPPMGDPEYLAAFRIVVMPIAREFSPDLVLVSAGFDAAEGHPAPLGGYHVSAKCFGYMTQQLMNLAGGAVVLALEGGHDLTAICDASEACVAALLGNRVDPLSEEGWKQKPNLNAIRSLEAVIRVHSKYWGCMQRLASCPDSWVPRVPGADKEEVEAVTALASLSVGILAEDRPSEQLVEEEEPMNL", "assay": "HDAC7 in-vitro enzymatic assay", "assay_type": "biochemical", "protocol": "as §1, §2"}, "[4]": {"assay": "Plasma stability Mouse", "assay_type": "in vitro ADME"}, "[5]": {"assay": "Stability SGD, SIF w. Enzymes", "assay_type": "in vitro ADME"}, "[6]": {"target": "T3, recombinant human HDAC2 (Homo sapiens, UniProt Q92769)", "T3 construct": "purchased BPS 50002", "T3 sequence (Q92769 whole entry)": "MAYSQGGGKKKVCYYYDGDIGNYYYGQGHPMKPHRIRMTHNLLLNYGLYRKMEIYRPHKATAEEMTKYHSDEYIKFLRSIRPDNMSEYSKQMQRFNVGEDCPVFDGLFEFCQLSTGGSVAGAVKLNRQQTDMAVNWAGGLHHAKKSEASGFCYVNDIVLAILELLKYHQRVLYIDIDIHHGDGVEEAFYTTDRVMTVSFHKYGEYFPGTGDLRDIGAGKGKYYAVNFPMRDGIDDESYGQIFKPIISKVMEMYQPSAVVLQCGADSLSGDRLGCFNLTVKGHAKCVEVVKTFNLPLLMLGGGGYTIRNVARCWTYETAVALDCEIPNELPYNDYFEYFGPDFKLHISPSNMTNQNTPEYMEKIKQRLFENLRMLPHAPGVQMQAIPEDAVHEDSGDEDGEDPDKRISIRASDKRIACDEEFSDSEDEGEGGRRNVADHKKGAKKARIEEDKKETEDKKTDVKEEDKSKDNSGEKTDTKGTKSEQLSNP", "assay": "biochemical", "protocol": "as §1, §2"}},
  "data": [
    {"molecule": "C#CCOCC(=O)Nc1ccc(C(=O)Nc2ccccc2N)cc1", "note": "[Compound 1, N-(2-aminophenyl)-4-{2-[(prop-2-yn-1-yl)oxy]acetamido}benzamide]", "values": [
      {"measurement": "IC50", "setting": "[1]", "value": "> 200", "unit": "µM"},
      {"measurement": "inhibition at 200 µM", "setting": "[1]; @ 200 μM, read-out: Inhib. HDAC8", "value": 42, "unit": "%"},
      {"measurement": "dose dependence of attenuation of E. coli growth in the colon and ileum", "setting": "[2]; FIG. 1", "value": "shows dose dependence"},
      {"measurement": "dose dependence of inhibition of vancomycin resistant E. coli translocation to the liver and spleen", "setting": "[2]; FIG. 1", "value": "not compound 1 dose dependent"},
      {"measurement": "lowering Colony Unit Forming count in colon tissue compared to vehicle treated animals", "setting": "[2]; administered orally at 25 mg/kg, 73.5 mk/kg and 50 mg/kg", "value": 3, "unit": "log10"},
      {"measurement": "E. coli burden in the intestines reduced compared to control", "setting": "[2]; colon and ileum, conclusion of the experiment", "value": "~3", "unit": "logs"},
      {"measurement": "translocation of bacteria to liver and spleen", "setting": "[2]", "value": "completely knocking out translocation"},
      {"measurement": "translocation of bacteria to liver and spleen", "setting": "[2]; listed as compound 1", "value": "totally inhibiting its translocation"},
      {"measurement": "IC50", "setting": "[3]", "value": "> 200", "unit": "µM"},
      {"measurement": "Inhib. HDAC7", "setting": "[3]; @ 200 μM", "value": "No Inhib. @ 200 μM"},
      {"measurement": "Plasma stability Mouse", "setting": "[4]", "value": "Low"},
      {"measurement": "Stability SGD, SIF w. Enzymes", "setting": "[5]", "value": "High"},
      {"measurement": "IC50", "setting": "[6]", "value": "~1.2", "unit": "µM"}
    ]}
  ]
}
